Measurements taken from patent publication US6083974A, “Benzothiophenecarboxamide derivatives and PGD2 antagonists comprising them” (Shionogi & Co., Ltd., priority 1996, dated 2000).

Key:
[1] = target: T1, PGD2 receptor (Homo sapiens, UniProt Q13258); assay: Binding to PGD2 Receptor (inhibition of [3H]PGD2 binding to human platelet membrane fraction); conditions: human platelet membrane fraction (0.1 mg), 5 nM [3H]PGD2, pH 7.4, 4° C., 90 min
T1 construct: A suspension adjusted to contain platelet at a final concentration of; endogenous in cells; host or cells: washed human platelets from peripheral blood of a healthy volunteer
T1 sequence (Q13258 1-359): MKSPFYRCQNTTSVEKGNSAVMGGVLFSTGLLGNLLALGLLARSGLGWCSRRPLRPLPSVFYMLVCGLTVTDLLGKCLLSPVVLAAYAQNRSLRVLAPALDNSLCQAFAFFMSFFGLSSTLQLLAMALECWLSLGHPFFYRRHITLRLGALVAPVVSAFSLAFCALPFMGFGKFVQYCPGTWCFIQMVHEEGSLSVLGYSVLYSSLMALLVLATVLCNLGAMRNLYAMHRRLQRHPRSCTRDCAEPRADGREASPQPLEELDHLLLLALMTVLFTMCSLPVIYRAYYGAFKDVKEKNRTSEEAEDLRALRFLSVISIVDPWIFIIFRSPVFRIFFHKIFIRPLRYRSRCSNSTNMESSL
Protocol: (1) Preparation of Human Platelet Membrane Fraction
Blood sample was obtained using a plastic syringe containing 3.8% sodium citrate from the vein of healthy volunteers (adult male and female), put into a plastic test tube and mixed gently by rotation. The sample was then centrifuged at 1800 rpm, 10 min at room temperature, and the supernatant containing PRP (platelet-rich plasma) was collected. The PRP was recentrifuged at2300 rpm, 22 min at room temperature to obtain platelets. The platelets were homogenized using a homogenizer (Ultra-Turrax) followed by centrifugation 3 times at 20,000 rpm, 10 min at 4° C. to obtain a platelet membrane fraction. After protein determination, the membrane fraction was adjusted to 2 mg/ml and preserved in a refrigerator at -80° C. until use.
(2) Binding to PGD2 Receptor
To a binding-reaction solution (50 mM Tris/HCl, pH 7.4, 5 mM MgCl2) (0.2 ml) were added to the human platelet membrane fraction (0.1 mg) and 5 nM [^3 H]PGD2 (115 Ci/mmol), and reacted at 4° C. for 90 min. After the reaction completed, the reaction mixture was filtered through a glass fiber filter paper, washed several times with cooled saline, and measured the radioactivity retained on the filter paper. The specific binding was calculated by subtracting the non-specific binding (the binding in the presence of 10 μM PGD2) from the total binding. The inhibitory activity of each compound was expressed as the concentration required for 50% inhibition (IC50), which was determined by depicting a substitution curve by plotting the binding ratio (%) in the presence of each compound, where the binding ratio in the absence of a test compound is 100%.

[2] = target: T1, PGD2 receptor; assay: Antagonistic activity against PGD2 receptor using human platelet (inhibition of PGD2-induced cAMP increase); assay type: cell-based; conditions: human washed platelets, 0.1 μM PGD2, 3-isobutyl-1-methylxanthine 0.5 mM, 37° C.; read-out: IC50, inhibition of cAMP increased by PGD2
Protocol: Evaluation of Antagonistic Activity Against PGD2 Receptor Using Human Platelet
Peripheral blood was obtained from a healthy volunteer using a syringe in which 1/9 volume of citric acid/dextrose solution has been previously added. The syringe was subjected to centrifugation at 180 g for 10 min to obtain the supernatant (PRP:platelet rich plasma). the resultant PRP was washed 3 times with a washing buffer and the number of platelet was counted with a micro cell counter. A suspension adjusted to contain platelet at a final concentration of 5×10^8 /ml was warmed at 37° C., and then subjected to the pre-treatment with 3-isobutyl-1-methylxanthine (0.5 mM) for 5 min. To the suspension was added a test compound diluted at various concentration. Ten-minute later, the reaction was induced by the addition of 0.1 μM PGD2 and , 2-minute later, stopped by the addition of hydrochloric acid. The platelet was destroyed with an ultrasonic homogenizer. After centrifugation, the cAMP in the supernatant was determined by radioummunoassay. PGD2 receptor antagonism of a drug was evaluated as follows. The inhibition rate regarding cAMP increased by the addition of PGD2 was determined at individual concentration, and then the concentration of the drug required for 50% inhibition (IC50) was calculated.

[3] = tested on: Hartley male guinea pig; assay: Nasal blocking model (intranasal pressure after OVA antigen exposure); assay type: in vivo; conditions: oral 60 min before 3% OVA antigen exposure, dose not given
Protocol: Experiment Using Nasal Blocking Model
The method used for measuring the intranasal pressure for evaluating the anti-nasal blockage using guinea pigs is described below.
A 1% ovalbumin (OVA) solution was treated with an ultrasonic nebulizer to obtain an aerosol. Hartley male guinea pig was sensitized by inhaling twice the aerosol for 10 min at one-week interval. Seven-day after the sensitization, the guinea pig was exposed to an antigen to initiate the reaction. Briefly, the trachea was incised under the anesthesia with pentobarbital (30 mg/kg, i.p.) and cannulas were inserted at the pulmonary side was connected with an artificial respirator that provides 4 ml air 60 times/min. After arresting the spontaneous respiration of the guinea pig with Gallamin (2 mg/kg, i.v.), air was supplied to the snout side with an artificial respirator at the frequency of 70 times/min, and the flow rate of 4 ml air/time, and the atmospheric pressure required for the aeration was measured by the use of a transducer fitted at the branch. The measurement was used as a parameter of the nasal cavity resistance. The exposure of an antigen was carried out by generating aerosol of 3% OVA solution for 3 min between the respirator and the nasal cavity cannula. The test drug was administered orally 60 min before the antigen exposure. […]

[4] = tested on: eosinophils; assay: Infiltration of eosinophils in the nasal cavity by an antigen challenge; assay type: in vivo; conditions: guinea pig, oral 1, 3 and 10 mg/kg, 1 hr before antigen challenge; marked columns not given
Protocol: Activity on Infiltration of Eosionophils in the Nasal Cavity by an Antigen Challenge
To a Hartley male guinea pig was injected intraperitoneally cyclophosphamide (30 mg/kg), after 2 day 1 ml of suspension containing 1 mg of ovalbumin (OVA) and 100 mg of aluminum hydroxide was injected intraperitoneally. After 3 weeks, 1 ml of mixture of OVA (10 μg) and aluminum hydroxide (100 mg) was intraperitoneally injected as additional immunization to sensitize systemically. After the lapse of 3 weeks, local sensitization, each 10 μl of 1% OVA solution was dripped in both nasal cavities four times at 2-4 day intervals. After 5-7 days from the final sensitization, nasal antigen challenge was performed by dripping 10 μl of 1% OVA solution to the guinea pigs in the both nasal cavity. Five hours after nasal challenge, the guinea pigs were exsanguinated under the anesthetization. The nasal airways were washed by infusing 10 ml of saline, and the washings were collected. The washing were centrifuged, the cell pellets were resuspended in 100 μl of saline, and the total cells were counted by the Turk stain. Then smear samples were prepared, and the cells were classified after the May-Grunwald-Giemsa stain. The eosinophil number was determined by multiplying the rate of eosinophils with the total cells. […]

| SMILES | IC50 [1] [nM] | IC50 [2] [nM] | Inhibitory Rate, intranasal pressure AUC for 30 min vs vehicle [3] [%] | inhibition of infiltration of eosinophils in the nasal cavity, significance versus vehicle (FIG. 1) [4] |
| --- | --- | --- | --- | --- |
| CC1(C)[C@H]2C[C@H](C/C=C\CCCC(=O)O)[C@@H](NC(=O)c3csc4ccc(Br)cc34)[C@@H]1C2 [IA-a-2] | 3.3 | – | – | – |
| CC1(C)[C@H]2C[C@H](C/C=C\CCCC(=O)O)[C@@H](NC(=O)c3csc4ccc(O)cc34)[C@@H]1C2 [IA-a-5] | 0.4 | 1.3 | 96 | significantly different from vehicle at p<0.01 |
| CC1(C)[C@H]2C[C@H](C/C=C\CCCC(=O)O)[C@@H](NC(=O)c3csc4cc(O)ccc34)[C@@H]1C2 [IA-a-7] | 1.3 | 2.8 | – | – |
| CC(=O)Oc1ccc2scc(C(=O)N[C@@H]3[C@@H](C/C=C\CCCC(=O)O)C[C@H]4C[C@@H]3C4(C)C)c2c1 [IA-a-9] | 6.5 | 0.21 | – | – |
| CC1(C)[C@H]2C[C@H](C/C=C/CCCC(=O)O)[C@@H](NC(=O)c3csc4ccc(O)cc34)[C@@H]1C2 [IA-a-17] | – | 28 | – | – |
| CC1(C)[C@H]2C[C@@H](C/C=C\CCCC(=O)O)[C@@H](NC(=O)c3csc4ccc(O)cc34)[C@@H]1C2 [IA-c-1] | – | 55 | – | – |
| CC1(C)[C@H]2C[C@@H](C/C=C/CCCC(=O)O)[C@@H](NC(=O)c3csc4ccc(O)cc34)[C@@H]1C2 [IA-c-2] | – | 61 | – | – |
| CC1(C)[C@H]2C[C@H](NC(=O)c3csc4ccccc34)[C@@H](C/C=C\CCCC(=O)O)[C@@H]1C2 [IB-a'-1] | – | 41 | – | – |
| CC1(C)[C@H]2C[C@@H](NC(=O)c3csc4ccc(O)cc34)[C@H](C/C=C\CCCC(=O)O)[C@@H]1C2 [IB-b'-3] | – | 57 | – | – |
